Source: ChEMBL document CHEMBL1133029, “Synthesis of hybrid distamycin-cysteine labeled with 99mTc: a model for a novel class of cancer imaging agents” (Bioorg Med Chem Lett, 2000)

Key:
[1] = tested on: K562; experiment: Concentration required for inhibitory activity was evaluated against human leukemic K562 cell line; format: functional, cell-based
[2] = tested on: L1210; experiment: Inhibitory activity against L1210 murine leukemic cell line after 48 hr of exposure to compound; format: functional, cell-based; conditions: Mus musculus, L1210, 48 h

| IC50 [2] [µM] | SMILES | Concentration [1] [µM] |
| --- | --- | --- |
| 7.96 | Cn1cc(NC(=O)c2cc(NC(=O)c3cc(NC(=O)[C@@H](N)CS)cn3C)cn2C)cc1C(=O)NCCC(=N)N | 10 |
| 9.64 | Cn1cc(NC(=O)c2cc(NC(=O)c3cc(NC=O)cn3C)cn2C)cc1C(=O)NCCC(=N)N | 12 |
